Measured values reported in PubChem BioAssay AID248 (DTP/NCI, 2004).
Toxic doses and inconclusive results are not listed. No stated cut-off is given here; in the data, active means T/C of 150% or more; inactive means T/C below 125%.

System: L1210 leukemia ip in BDF1 mice, survival T/C
Experiment: NCI In Vivo Anticancer Drug Screen. Data for tumor model L1210 Leukemia (intraperitoneal) in B6D2F1 (BDF1) mice
Conditions: endpoint: mean survival time, higher = longer survival
In short: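 Tumor cells were implanted, animals were treated, and survival was followed. The result divides the treated measurement by the vehicle-control measurement.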

[1] = dose: 100.0 mg/kg/injection, schedule: Q01DX001 (ip), vehicle: saline
[2] = dose: 200.0 mg/kg/injection, schedule: Q01DX001 (ip), vehicle: saline
[3] = dose: 400.0 mg/kg/injection, schedule: Q01DX001 (ip), vehicle: saline
[4] = dose: 100.0 mg/kg/injection, schedule: Q01DX009 (ip), vehicle: saline

Measured: T/C

Nc1nc(=O)n(C2CC(O)C(CO)O2)cc1Br (configuration not stated)
inactive: dose: 20.0 mg/kg/injection, schedule: Q01DX Z (ip), vehicle: carboxymethylcellulose (CMC) 95 % of control | dose: 40.0 mg/kg/injection, schedule: Q01DX Z (ip), vehicle: carboxymethylcellulose (CMC) 101 % of control | dose: 50.0 mg/kg/injection, schedule: Q01DX001 (ip), vehicle: saline 109 % of control | dose: 80.0 mg/kg/injection, schedule: Q01DX Z (ip), vehicle: carboxymethylcellulose (CMC) 101 % of control | [1] 105 % of control | dose: 160.0 mg/kg/injection, schedule: Q01DX Z (ip), vehicle: carboxymethylcellulose (CMC) 106 % of control | [2] 111 % of control | [3] 117 % of control

CCc1cc(CC)c(S(=O)(=O)O)c(CC)c1CC
inactive: [4] 90 % of control

OCc1ccc(CO)cc1
inactive: dose: 100.0 mg/kg/injection, schedule: Q01DX009 (ip), vehicle: saline sonified 100 % of control | dose: 200.0 mg/kg/injection, schedule: Q01DX009 (ip), vehicle: saline sonified 94 % of control | dose: 400.0 mg/kg/injection, schedule: Q01DX009 (ip), vehicle: saline sonified 103 % of control

CCCCC(=O)N/N=C/c1ccc(OC)c(OC)c1
inactive: [1] 100 % of control | [2] 94 % of control | [3] 91 % of control

COc1ccc(CN2CCCN(Cc3ccc(OC)cc3OC)C2c2ccc(OC)cc2OC)c(OC)c1
inactive: dose: 50.0 mg/kg/injection, schedule: Q01DX001 (ip), vehicle: carboxymethylcellulose (CMC) 93 % of control | dose: 100.0 mg/kg/injection, schedule: Q01DX001 (ip), vehicle: carboxymethylcellulose (CMC) 104 % of control | dose: 200.0 mg/kg/injection, schedule: Q01DX001 (ip), vehicle: carboxymethylcellulose (CMC) 93 % of control | dose: 400.0 mg/kg/injection, schedule: Q01DX001 (ip), vehicle: carboxymethylcellulose (CMC) 98 % of control

Cc1cc(N(CCCCl)CCCCl)ccc1C=Nc1cccc(Cl)c1
inactive: dose: 100.0 mg/kg/injection, schedule: Q04DX003 (ip), vehicle: Klucel (hydroxypropylcellulose) (HPC) 101 % of control | dose: 200.0 mg/kg/injection, schedule: Q04DX003 (ip), vehicle: Klucel (hydroxypropylcellulose) (HPC) 101 % of control | dose: 400.0 mg/kg/injection, schedule: Q04DX003 (ip), vehicle: Klucel (hydroxypropylcellulose) (HPC) 96 % of control

NC(=O)NOCC1NC(=O)NC1=O (configuration not stated)
inactive: [4] 96 % of control | dose: 200.0 mg/kg/injection, schedule: Q01DX009 (ip), vehicle: saline 102 % of control | dose: 400.0 mg/kg/injection, schedule: Q01DX009 (ip), vehicle: saline 102 % of control

CNc1ccccc1C=O
inactive: [1] 94 % of control | [2] 97 % of control | [3] 100 % of control

CNc1cc(N)ncn1
inactive: dose: 25.0 mg/kg/injection, schedule: Q01DX Z (ip), vehicle: saline 90 % of control | dose: 75.0 mg/kg/injection, schedule: Q01DX Z (ip), vehicle: saline 93 % of control

CCOC(=O)Cc1c(C)[nH]c2c(C)ccc(C)c12
inactive: dose: 5.0 mg/kg/injection, schedule: Q01DX001 (ip), vehicle: other 94 % of control | dose: 10.0 mg/kg/injection, schedule: Q01DX001 (ip), vehicle: other 91 % of control | dose: 20.0 mg/kg/injection, schedule: Q01DX001 (ip), vehicle: other 105 % of control | dose: 40.0 mg/kg/injection, schedule: Q01DX001 (ip), vehicle: other 96 % of control | dose: 80.0 mg/kg/injection, schedule: Q01DX001 (ip), vehicle: other 100 % of control

Fc1ccc2[nH]c3c(c2c1)C[P+](Cc1cccc2ccccc12)(c1ccccc1)CC3 (configuration not stated)
inactive: dose: 100.0 mg/kg/injection, schedule: Q04DX003 (ip), vehicle: saline 98 % of control | dose: 200.0 mg/kg/injection, schedule: Q04DX003 (ip), vehicle: saline 88 % of control

Cc1c(NC(=O)Nc2cc(C(F)(F)F)ccc2Cl)c(=O)n(-c2ccccc2)n1C
inactive: dose: 100.0 mg/kg/injection, schedule: Q04DX002 (ip), vehicle: Klucel (hydroxypropylcellulose) (HPC) 96 % of control | dose: 200.0 mg/kg/injection, schedule: Q04DX002 (ip), vehicle: Klucel (hydroxypropylcellulose) (HPC) 96 % of control | dose: 400.0 mg/kg/injection, schedule: Q04DX002 (ip), vehicle: Klucel (hydroxypropylcellulose) (HPC) 105 % of control

Cc1cc(N=Nc2ccccc2C)ccc1N
inactive: dose: 3.0 mg/kg/injection, schedule: Q01DX009 (ip), vehicle: DMSO 97 % of control | dose: 6.0 mg/kg/injection, schedule: Q01DX009 (ip), vehicle: DMSO 90 % of control | dose: 12.0 mg/kg/injection, schedule: Q01DX009 (ip), vehicle: DMSO 98 % of control | dose: 12.5 mg/kg/injection, schedule: Q01DX009 (ip), vehicle: DMSO 95 % of control | dose: 12.5 mg/kg/injection, schedule: Q04DX003 (ip), vehicle: DMSO 100 % of control | dose: 25.0 mg/kg/injection, schedule: Q04DX003 (ip), vehicle: DMSO 98 % of control | dose: 50.0 mg/kg/injection, schedule: Q04DX003 (ip), vehicle: DMSO 96 % of control
